Test results published in article PMC10941260 (RSC Advances, 2024).
Where two headings read alike, the source gives them in different places.

Columns and labels:
AChE [1] = target: T1, AChE (Electrophorus electricus, UniProt O42275); test: Cholinesterase inhibition assay; type: biochemical, electric eels; conditions: for fold decrease in potency against AChE: compared to the most potent compound (a11)
MAO-A [2] = target: T2, MAO-A (Mus musculus, UniProt Q64133); test: Monoamine oxidase A inhibition assay; type: biochemical, Mice; conditions: compared to (a3)
T2 sequence (Q64133 1-526): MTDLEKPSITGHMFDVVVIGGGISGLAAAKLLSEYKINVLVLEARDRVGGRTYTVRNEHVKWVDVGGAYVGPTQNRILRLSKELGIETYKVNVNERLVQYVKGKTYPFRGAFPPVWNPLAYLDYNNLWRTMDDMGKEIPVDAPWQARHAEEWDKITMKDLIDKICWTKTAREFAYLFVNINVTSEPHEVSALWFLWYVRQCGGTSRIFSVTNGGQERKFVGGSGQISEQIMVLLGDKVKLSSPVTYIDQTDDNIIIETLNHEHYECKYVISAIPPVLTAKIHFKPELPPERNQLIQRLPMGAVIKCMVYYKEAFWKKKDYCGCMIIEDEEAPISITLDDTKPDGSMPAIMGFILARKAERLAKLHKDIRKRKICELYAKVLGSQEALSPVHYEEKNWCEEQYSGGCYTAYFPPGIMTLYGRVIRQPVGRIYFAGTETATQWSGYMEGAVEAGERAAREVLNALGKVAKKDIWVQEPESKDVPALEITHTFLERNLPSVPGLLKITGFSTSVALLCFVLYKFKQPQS

MAO-B [3] = target: T3, MAO-B (Mus musculus, UniProt Q8BW75); test: Monoamine oxidase B inhibition assay; type: biochemical, Mice; conditions: compared to the most potent compound (a12)
T3 sequence (Q8BW75 2-520): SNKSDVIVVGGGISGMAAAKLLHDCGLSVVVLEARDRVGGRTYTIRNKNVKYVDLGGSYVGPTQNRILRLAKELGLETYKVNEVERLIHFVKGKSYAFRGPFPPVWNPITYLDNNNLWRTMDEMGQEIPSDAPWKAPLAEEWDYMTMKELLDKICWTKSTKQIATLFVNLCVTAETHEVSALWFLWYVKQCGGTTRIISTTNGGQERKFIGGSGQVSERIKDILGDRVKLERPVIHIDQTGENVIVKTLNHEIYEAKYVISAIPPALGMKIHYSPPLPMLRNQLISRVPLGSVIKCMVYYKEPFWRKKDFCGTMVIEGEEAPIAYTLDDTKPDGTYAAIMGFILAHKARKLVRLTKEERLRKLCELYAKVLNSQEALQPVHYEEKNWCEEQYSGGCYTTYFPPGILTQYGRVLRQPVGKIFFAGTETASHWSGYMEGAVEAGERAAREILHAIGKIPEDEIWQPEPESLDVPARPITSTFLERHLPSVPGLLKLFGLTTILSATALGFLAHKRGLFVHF

BChE [4] = target: T4, BChE (Equus caballus, UniProt P81908); test: Cholinesterase inhibition assay; type: biochemical, horse; conditions: for fold decrease in activity against BChE: compared to the di-methoxy substituted compound, printed as (a5)
MAO-A [5] = test: Enzyme kinetic study; type: biochemical; conditions: Lineweaver-Burk plot, substrate p-tyramine
AChE [6] = target: T1, AChE; test: Enzyme kinetic study; type: biochemical; conditions: Lineweaver-Burk plot, substrate ATCII
BChE [7] = target: T4, BChE; test: Enzyme kinetic study; type: biochemical; conditions: Lineweaver-Burk plot, substrate BTCII
MAO-B [8] = test: Enzyme kinetic study; type: biochemical; conditions: Lineweaver-Burk plot, substrate p-tyramine
[9] = read-out: IC50 BChE, N/A = Not active (footnote b)

T1 sequence (O42275 24-633): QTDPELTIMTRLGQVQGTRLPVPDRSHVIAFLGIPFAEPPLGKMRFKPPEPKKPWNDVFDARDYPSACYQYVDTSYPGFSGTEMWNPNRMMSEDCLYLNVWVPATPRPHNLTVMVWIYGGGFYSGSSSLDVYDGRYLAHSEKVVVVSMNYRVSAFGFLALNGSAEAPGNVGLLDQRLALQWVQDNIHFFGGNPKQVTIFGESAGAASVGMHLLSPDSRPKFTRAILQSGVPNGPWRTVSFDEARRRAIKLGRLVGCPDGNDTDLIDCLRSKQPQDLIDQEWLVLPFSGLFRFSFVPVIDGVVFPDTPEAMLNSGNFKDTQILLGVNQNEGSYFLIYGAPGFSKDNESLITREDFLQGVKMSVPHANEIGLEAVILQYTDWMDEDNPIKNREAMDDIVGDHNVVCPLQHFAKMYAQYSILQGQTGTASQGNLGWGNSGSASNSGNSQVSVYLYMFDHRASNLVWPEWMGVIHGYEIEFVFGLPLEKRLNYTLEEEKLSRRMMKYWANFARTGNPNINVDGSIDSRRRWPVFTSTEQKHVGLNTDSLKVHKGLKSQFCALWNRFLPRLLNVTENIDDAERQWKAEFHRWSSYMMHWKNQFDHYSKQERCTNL
T4 sequence (P81908 whole entry): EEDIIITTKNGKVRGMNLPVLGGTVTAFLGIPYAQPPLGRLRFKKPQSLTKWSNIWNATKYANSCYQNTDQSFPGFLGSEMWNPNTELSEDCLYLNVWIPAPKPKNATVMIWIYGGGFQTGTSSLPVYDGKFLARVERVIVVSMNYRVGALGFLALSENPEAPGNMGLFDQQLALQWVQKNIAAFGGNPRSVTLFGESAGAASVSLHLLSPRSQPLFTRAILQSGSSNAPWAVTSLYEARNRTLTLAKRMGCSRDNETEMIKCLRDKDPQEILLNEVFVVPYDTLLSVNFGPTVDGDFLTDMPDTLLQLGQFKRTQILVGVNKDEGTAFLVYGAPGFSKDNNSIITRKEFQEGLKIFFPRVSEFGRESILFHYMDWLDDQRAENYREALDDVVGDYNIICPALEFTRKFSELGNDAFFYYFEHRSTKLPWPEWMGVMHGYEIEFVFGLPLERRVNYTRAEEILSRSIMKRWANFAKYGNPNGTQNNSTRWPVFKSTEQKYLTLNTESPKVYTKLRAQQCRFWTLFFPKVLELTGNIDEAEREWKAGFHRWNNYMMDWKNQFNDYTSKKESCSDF

**Q.** What does the source list for `O=S(=O)(Nc1cccc(I)c1)c1cccc2cccnc12` [a1, N-(3-Iodophenyl)quinoline-8-sulfonamide]?
**A.** IC50 (AChE [1]): 1110 ± 570 nM; fold decrease in potency against AChE (AChE [1]): ~2 fold

**Q.** Which results are given for `Cc1ccc(F)c(CNS(=O)(=O)c2cccc3cccnc23)c1` [a2, N-(2-Fluoro-5-methylphenzyl)quinoline-8-sulfonamide]?
**A.** fold decrease in activity against MAO-A (MAO-A [2]): 4 fold; fold reduction in potency against MAO-B (MAO-B [3]): 4 fold; fold decrease in potency against AChE (AChE [1]): ~3 fold; IC50 (AChE [1]; read-out: IC50 AChE): 2580 ± 970 nM

**Q.** Which results are given for `O=S(=O)(NCc1ccc(Cl)cc1)c1cccc2cccnc12` [a4, N-(4-Chlorobenzyl)quinoline-8-sulfonamide]?
**A.** IC50 (AChE [1]): 2180 ± 1170 nM; fold decrease in potency against AChE (AChE [1]): ~4 fold

**Q.** Which results are given for `O=S(=O)(NCc1cccc(Cl)c1)c1cccc2cccnc12` [a5, N-(3-Chlorobenzyl)quinoline-8-sulfonamide]?
**A.** IC50 (AChE [1]): 1950 ± 1070 nM; fold decrease in potency against AChE (AChE [1]): ~4 fold; IC50 (BChE [4]): 2840 ± 1070 nM; fold decrease in activity against BChE (BChE [4]): ~2 fold; mode of inhibition toward MAO-A (MAO-A [5]): competitive inhibition

**Q.** How did the IC50 (AChE [1]) turn out when `O=S(=O)(Nc1ccc(I)cc1)c1cccc2cccnc12` [a8, N-(4-Iodophenyl)quinoline-8-sulfonamide] was run?
**A.** 1150 ± 720 nM

**Q.** And the “fold decrease in potency against AChE” value (AChE [1])?
**A.** ~2 fold

**Q.** For `N#Cc1ccc(NS(=O)(=O)c2cccc3cccnc23)cc1` [a9, N-(4-Cyanophenyl)quinoline-8-sulfonamide], which IC50 (AChE [1]) is on record?
**A.** 3780 ± 920 nM

**Q.** What about the “fold decrease in potency against AChE” value (AChE [1]) of the same compound?
**A.** 7 fold

**Q.** For `O=S(=O)(NCC1CCCCC1)c1cccc2cccnc12` [a10, N-(Cyclohexylmethyl)quinoline-8-sulfonamide], which IC50 (AChE [1]) is on record?
**A.** 1360 ± 770 nM

**Q.** With `O=S(=O)(NCc1cc(F)cc(C(F)(F)F)c1)c1cccc2cccnc12` [a14, N-(3-Fluoro-5-(trifluoromethyl)benzyl)quinoline-8-sulfonamide] as the compound, how does the IC50 (AChE [1]; read-out: IC50 AChE) read?
**A.** 3060 ± 770 nM

**Q.** And the IC50 (BChE [4]; [9])?
**A.** 1180 ± 570 nM

**Q.** Which IC50 (AChE [1]) does the source give for `O=S(=O)(NCc1ccc(Cl)cc1Cl)c1cccc2cccnc12` [a15, N-(2,4-Dichlorobenzyl)-8-quinolinesulfonamide] here?
**A.** 1400 ± 540 nM

**Q.** What about the “fold decrease in potency against AChE” value (AChE [1]) of the same compound?
**A.** ~2.5 fold

**Q.** `O=S(=O)(NCc1ccccc1Cl)c1cccc2cccnc12` [a16, N-(2-Chlorobenzyl)-8-quinolinesulfonamide] was tested. Which IC50 (AChE [1]) did it give?
**A.** 1920 ± 870 nM

**Q.** And the “fold decrease in potency against AChE” value (AChE [1])?
**A.** ~4 fold

**Q.** How did the IC50 (AChE [1]) turn out when `COc1ccc(CNS(=O)(=O)c2cccc3cccnc23)cc1` [a18, N-(4-Methoxybenzyl)-8-quinolinesulfonamide] was run?
**A.** 1010 ± 610 nM

**Q.** What about the “fold decrease in potency against AChE” value (AChE [1]) of the same compound?
**A.** 2 fold

**Q.** And the IC50 (BChE [4])?
**A.** 2780 ± 920 nM

**Q.** And the “fold decrease in activity against BChE” value (BChE [4])?
**A.** 2 fold

**Q.** “N-(2,3-Dihydro-1H-benzo[d]imidazole-2-yl)quinoline-8-sulfonamide [a7]” was tested. Which “fold reduction in potency against MAO-B” value (MAO-B [3]) did it give?
**A.** 2 fold

**Q.** And the IC50 (AChE [1]; read-out: IC50 AChE)?
**A.** 1730 ± 870 nM

**Q.** Which results are given for “N-(2,6-Difluorophenyl)quinoline-8-sulfonamide [a3]”?
**A.** fold reduction in potency against MAO-B (MAO-B [3]): 4 fold; fold decrease in potency against AChE (AChE [1]): ~3 fold; IC50 (AChE [1]; read-out: IC50 AChE): 1010 ± 590 nM

**Q.** For “N-(2-Fluorobenzyl)quinoline-8-sulfonamide [a13]”, which “fold decrease in activity against MAO-A” value (MAO-A [2]) is on record?
**A.** 2 fold

**Q.** And the “fold reduction in potency against MAO-B” value (MAO-B [3])?
**A.** 3 fold

**Q.** What about the “fold decrease in potency against AChE” value (AChE [1]) of the same compound?
**A.** 3 fold

**Q.** What about the IC50 (AChE [1]; read-out: IC50 AChE) of the same compound?
**A.** 1650 ± 970 nM

**Q.** Which “fold reduction in potency against MAO-B” value (MAO-B [3]) does the source give for “N-(2-Hydroxyphenyl)quinoline-8-sulfonamide [a11]” here?
**A.** 2 fold

**Q.** And the IC50 (AChE [1]; read-out: IC50 AChE)?
**A.** 580 ± 50 nM

**Q.** What about the “mode of inhibition toward AChE” value (AChE [6]) of the same compound?
**A.** competitive inhibition

**Q.** “N-(3,4-Dimethoxybenzyl)quinoline-8-sulfonamide [a6]” was tested. Which “fold decrease in potency against AChE” value (AChE [1]) did it give?
**A.** 2 fold

**Q.** And the IC50 (AChE [1]; read-out: IC50 AChE)?
**A.** 1110 ± 470 nM

**Q.** What about the IC50 (BChE [4]; [9]) of the same compound?
**A.** 1100 ± 890 nM

**Q.** What about the “mode of inhibition toward BChE” value (BChE [7]) of the same compound?
**A.** competitive inhibition

**Q.** Which results are given for “N-(4-Florobenzyl)-8-quinolinesulfonamide [a12]”?
**A.** fold decrease in activity against MAO-A (MAO-A [2]): 2 fold; IC50 (AChE [1]; read-out: IC50 AChE): 2650 ± 970 nM; IC50 (BChE [4]; [9]): 1160 ± 770 nM; mode of inhibition toward MAO-B (MAO-B [8]): competitive inhibition
